Assays:
H9C2 cells [1] = test: MTT cell viability assay in H9C2 cells; format: cell-based, rat; conditions: 24 h, analogues at Vero IC50 concentration
Description: (§1) Similarly, the toxicity of these compounds in terms of the viability of cells was estimated by using the MTT assay and cell counting kit-8 (CCK-8) assay. For MTT assay, after 24 h of treatments, MTT (5 mg/ml of PBS; HiMedia, India) was added, and cells were incubated for 2 h at 37 °C. The formazan crystals that were formed after the incubation were dissolved using dimethyl sulfoxide (DMSO). For the CCK-8 assay, 10 μL of CCK-8 solution (Boster Biological Technology, Pleasanton, CA, USA) was added to each well and incubated for 2 h at 37 °C. The absorbance for MTT and CCK-8 assay was measured at 570 nm and 450 nm respectively using the EnSight™ Multimode plate reader (Perkin Elmer, MA, USA)[49],[50].

[2] = test system: WJMSC-derived cardiomyocytes (WJCM); test: MTT and CCK-8 cell viability assays in WJCM; format: cell-based, human; conditions: 24 h; analogues at Vero IC50 concentration; Dox 1 µM
Description: as §1

H9C2 cells [3] = test: LDH release assay in H9C2 cells; format: cell-based, rat; conditions: 24 h; analogues at Vero IC50 concentration
Description: (§2) The experiment was performed as per the manufacturer’s protocol. Absorbance was taken at 490 nm and 680 nm (background signal) using multimode plate reader. LDH activity was calculated by subtracting absorbance taken at 680 nm from 490 nm.

[4] = test system: WJMSC-derived cardiomyocytes (WJCM); test: LDH release assay in WJCM; format: cell-based, human; conditions: 24 h; analogues at Vero IC50 concentration
Description: as §2

H9C2 cells [5] = test: Intracellular ROS assay in H9C2 cells; format: cell-based, rat; conditions: 24 h; analogues at Vero IC50 concentration
Description: (§3) Generation of ROS was detected using Fluorometric intracellular ROS kit (Sigma Aldrich, MO, USA) as per manufacturer’s protocol. Fluorescence was measured at excitation and emission of 650 nm and 675 nm respectively via multimode plate reader[50],[51].

[6] = test system: WJMSC-derived cardiomyocytes (WJCM); test: Intracellular ROS assay in WJCM; format: cell-based, human; conditions: 24 h; analogues at Vero IC50 concentration
Description: as §3

H9C2 cells [7] = test: Griess assay (NO release) in H9C2 cells; format: cell-based, rat; conditions: 24 h; analogues at Vero IC50 concentration
Description: (§4) Nitric oxide (NO) release was estimated using the Griess assay. Briefly, after 24 h of drug treatment, Griess reagent (Sigma Aldrich, MO, USA) was added to cells in equal volume and incubated for 30 min in the dark, and absorbance was taken at 540 nm via multimode plate reader.

H9C2 cells [8] = test: Fura-2AM intracellular calcium assay in H9C2 cells; format: cell-based, rat; conditions: 24 h; analogues at Vero IC50 concentration
Description: (§5) Intracellular calcium flux was measured using the fluorescent radiometric Ca^2+ indicator, Fura-2 acetoxymethyl ester (Fura-2, AM; Invitrogen, Carlsbad, USA). Briefly, after 24 h of treatment, Fura-2AM (1 μmol/L) was added to cells and incubated for 30 min at 37 °C. The intracellular calcium flux was measured at excitation of 340 nm and 380 nm and emission of 510 nm using a multimode plate reader.

[9] = test system: WJMSC-derived cardiomyocytes (WJCM); test: Fura-2AM intracellular calcium assay in WJCM; format: cell-based, human; conditions: 24 h; analogues at Vero IC50 concentration
Description: as §5

H9C2 cells [10] = test: TMRE mitochondrial membrane potential assay in H9C2 cells; format: cell-based, rat; conditions: 24 h; analogues at Vero IC50 concentration
Description: (§6) Mitochondrial membrane potential of the cells after drug treatment was detected using tetramethylrhodamine ethyl ester dye (TMRE; Molecular Probes, CA, USA). The cells were incubated with 0.3 µM TMRE dye and incubated at 37 °C for 30 min in dark. Fluorescence intensity of TMRE was measured at excitation and emission of 549 nm and 574 nm respectively via a multimode plate reader.

[11] = test system: WJMSC-derived cardiomyocytes (WJCM); test: TMRE mitochondrial membrane potential assay in WJCM; format: cell-based, human; conditions: 24 h; analogues at Vero IC50 concentration
Description: as §6

[12] = test system: cardiac markers (NKX2.5, GATA4, Troponin I, Troponin T, MHCα) in WJCM; test: qRT-PCR gene expression of cardiac-specific markers in WJCM; conditions: qRT-PCR; analogues at Vero IC50 concentration
Description: Differentiation of WJMSCs was done using a proprietary combination of DNMT and HDAC inhibitors in KO-DMEM/F-12 containing 10% FBS for 48 h. Induction media was replaced with culture media i.e. KO-DMEM/F-12 with 1X GlutaMAX and, 10% FBS after 48 h for 7 days[23].
WJMSC-derived cardiomyocytes (WJCM) and H9C2 were treated with NMJ and QMJ analogues for 24 h. […] To illustrate the toxicity specific to cardiac cells and not a general cytotoxicity, WJMSCs were treated with positive cardiotoxic drugs.
Total ribonucleic acid (RNA) was isolated using RNAiso Plus (TaKaRa, Shiga, Japan) followed by cDNA conversion using PrimeScript™ 1st strand cDNA synthesis kit (TaKaRa, Shiga, Japan). Quantitative reverse transcriptase-polymerase chain reaction (qRT-PCR) was performed by using TB Green™ Premix Ex Taq™ II (Tli RNase H Plus; TaKaRa, Shiga, Japan) for cardiac markers in a QuantStudio™ 5 real-time PCR Systems (Applied Biosystems, USA). All the primers were purchased from Sigma Aldrich, Bangalore, India (Table 1). The relative gene expression was calculated using 2^-∆∆CT and GAPDH, a housekeeping gene was used as endogenous control[52],[53].

[13] = test system: cardiomyocytes (WJCM and H9C2 cells); test: Cardiotoxicity across parameters as summarised in the discussion (WJCM and H9C2 cells); format: cell-based, human and rat; conditions: for overall cardiotoxicity across the parameters analyzed: analogues at Vero IC50 concentration, 24 h; for active mitochondria status in treated cardiomyocytes / cytotoxic effect against cardiomyocytes by MTT, CCK-8 and LDH assay / intracellular calcium level in treated cardiomyocytes: discussion summary, cell model not specified
Source text: We investigated the effects of 3-hydroxyflavone (QMJ-2, QMJ-5, and QMJ-6) and cinnamyl sulfonamide-hydroxamate (NMJ-1, NMJ-2, NMJ-3) in WJCM and H9C2 cells using the concentrations reported for non-cancerous Vero cells. The prerequisite for any synthesized drug molecules is that they should be nontoxic to cardiac cells.

[14] = test system: Vero, a non-cancerous cell line; design: method as in PMID 25824412, PMID 30687400; conditions: read-out: IC50 in Vero cells; cited from earlier work
[15] = test system: WJMSC-derived cardiomyocytes (WJCM); test: Griess assay (NO release) in WJCM; format: cell-based, human; conditions: 24 h
Description: as §4

COc1ccc2c(=O)c(O)c(-c3ccc(C)cc3)oc2c1 [QMJ-6, 3-Hydroxy-7-methoxy-2-(4-methylphenyl)-4H-1-benzopyran-4-one]
viability of H9C2 cells (MTT), result in words (H9C2 cells [1]): increase in viability
toxicity / cell viability in WJCM (MTT, CCK-8), result in words [2]: less toxic
LDH release in H9C2 cells (H9C2 cells [3]): no to little change
LDH release in WJCM [4]: no to little change
ROS activity in H9C2 cells (H9C2 cells [5]): lowered ROS activity
ROS activity in WJCM [6]: lowered ROS activity
NO level in H9C2 cells (Griess) (H9C2 cells [7]): elevated NO levels
intracellular Ca2+ accumulation in H9C2 cells (Fura-2AM) (H9C2 cells [8]): decrease in Ca^2+ accumulation
intracellular Ca2+ accumulation in WJCM (Fura-2AM) [9]: decrease in Ca^2+ accumulation
mitochondrial membrane potential in H9C2 cells (TMRE) (H9C2 cells [10]): increased mitochondrial membrane potential
mitochondrial membrane potential in WJCM (TMRE) [11]: increased mitochondrial membrane potential
GATA4 gene expression in WJCM [12]: marked upregulation
MHCα gene expression in WJCM [12]: marked upregulation
NKX2.5 gene expression in WJCM [12]: significant increase
Troponin I gene expression in WJCM [12]: marked upregulation
Troponin T gene expression in WJCM, increase [12]: 8–10 fold
overall cardiotoxicity across the parameters analyzed [13]: do not display significant cardiotoxicity
active mitochondria status in treated cardiomyocytes [13]: remains unaffected
cytotoxic effect against cardiomyocytes by MTT, CCK-8 and LDH assay [13]: no cytotoxic effect
intracellular calcium level in treated cardiomyocytes [13]: remained low
IC50 [14]: 153 µM

O=C(/C=C/c1ccc(S(=O)(=O)NCc2ccco2)cc1)NO [NMJ-3]
viability of H9C2 cells (MTT), result in words (H9C2 cells [1]): increase in viability
decrease in viability of H9C2 cells (MTT) (H9C2 cells [1]; Dox 1 µM): 10–20%
toxicity / cell viability in WJCM (MTT, CCK-8), result in words [2]: less toxic
LDH release in H9C2 cells (H9C2 cells [3]): no to little change
LDH release in WJCM [4]: no to little change
ROS activity in H9C2 cells (H9C2 cells [5]): lowered ROS activity
ROS activity in WJCM [6]: lowered ROS activity
decrease of NO level in WJCM (Griess) ([15]; NMJ-3 at 15.1 µM): 12%
intracellular Ca2+ accumulation in H9C2 cells (Fura-2AM) (H9C2 cells [8]): decrease in Ca^2+ accumulation
intracellular Ca2+ accumulation in WJCM (Fura-2AM) [9]: decrease in Ca^2+ accumulation
mitochondrial membrane potential in H9C2 cells (TMRE) (H9C2 cells [10]): increased mitochondrial membrane potential
mitochondrial membrane potential in WJCM (TMRE) [11]: increased mitochondrial membrane potential
GATA4 gene expression in WJCM [12]: marked upregulation
MHCα gene expression in WJCM [12]: marked upregulation
Troponin I gene expression in WJCM [12]: marked upregulation
Troponin T gene expression in WJCM, increase [12]: 8–10 fold
overall cardiotoxicity across the parameters analyzed [13]: do not display significant cardiotoxicity
active mitochondria status in treated cardiomyocytes [13]: remains unaffected
cytotoxic effect against cardiomyocytes by MTT, CCK-8 and LDH assay [13]: no cytotoxic effect
intracellular calcium level in treated cardiomyocytes [13]: remained low
IC50 [14]: 15.1 µM

O=C(/C=C/c1ccc(S(=O)(=O)NCCc2cccs2)cc1)NO [NMJ-2]
toxicity / cell viability in WJCM (MTT, CCK-8), result in words [2]: less toxic
LDH release in H9C2 cells (H9C2 cells [3]): increase in LDH
LDH release in WJCM [4]: increase in LDH
ROS activity in WJCM [6]: lowered ROS activity
NO level in H9C2 cells (Griess) (H9C2 cells [7]): elevated NO levels
NO level in WJCM (Griess), result in words ([15]; analogues at Vero IC50 concentration): elevated NO levels
intracellular Ca2+ accumulation in H9C2 cells (Fura-2AM) (H9C2 cells [8]): decrease in Ca^2+ accumulation
intracellular Ca2+ accumulation in WJCM (Fura-2AM) [9]: decrease in Ca^2+ accumulation
mitochondrial membrane potential in H9C2 cells (TMRE) (H9C2 cells [10]): increased mitochondrial membrane potential
GATA4 gene expression in WJCM [12]: marked upregulation
MHCα gene expression in WJCM [12]: marked upregulation
NKX2.5 gene expression in WJCM [12]: significant increase
Troponin I gene expression in WJCM [12]: marked upregulation
Troponin T gene expression in WJCM, result in words [12]: milder increase
overall cardiotoxicity across the parameters analyzed [13]: do not display significant cardiotoxicity
active mitochondria status in treated cardiomyocytes [13]: remains unaffected
cytotoxic effect against cardiomyocytes by MTT, CCK-8 and LDH assay [13]: no cytotoxic effect
intracellular calcium level in treated cardiomyocytes [13]: remained low
IC50 [14]: 8.2 µM

Source: publication PMC9734143, “An efficient human stem cells derived cardiotoxicity testing platform for testing oncotherapeutic analogues of quercetin and cinnamic acid” (Scientific Reports, 2022)
